Reference: PMC10376843, “Discovery of Novel Myristic Acid Derivatives as N-Myristoyltransferase Inhibitors: Design, Synthesis, Analysis, Computational Studies and Antifungal Activity” (Antibiotics, 2023)
≈ marks a conversion by molar mass, not a printed value. Read-outs that look alike come from different tables or passages of the source.

Tests used:
[1] = tested on: Candida albicans (ATCC 10231); assay: antifungal micro-broth dilution assay, C. albicans; assay type: cell-based; conditions: ATCC10231, 48 h
Procedure: (§1) A microbroth dilution method was used to test the synthesized compounds. In vitro tests for antifungal activity against Candida albicans (C. albicans) and Aspergillus niger (A. niger) were carried out in triplicate at concentrations ranging from 100 μg/mL to 6.25 μg/mL. The percentage cytotoxicity and MIC50 value for each compound were calculated from the observed absorbance measured at 590 nm, and the results are shown in Table 5. Fluconazole was used as a reference drug, and the antifungal activities were expressed as minimum inhibitory concentration (MIC50) values in μg/mL.
(§2) From HIMEDIA M210 Mumbai, India, test fungal strains were acquired. The conventional micro-broth dilution method was used to test the in vitro antifungal activity of the synthesized compounds against the fungi Candida albicans (ATCC 10231) and Aspergillus niger (ATCC 16888) from the American Type Culture Collection. The acquired fungal strains were used in the current experiment after being subcultured in SDB (Sabouraud dextrose broth). The 48 h young cultures were created and kept at 26 °C before the experiment.
(§3) According to the CLSI’s standard M27 recommended methodology, the SDB was treated with the compounds, which were dissolved in DMSO via the serial dilution method in sterile circumstances to achieve the necessary concentration levels. All the cultures that had been exposed to the compounds were serially diluted twice in growth media, inoculated to about 1 × 10^5 CFU/mL and incubated at 26 °C for 48 h. Subsequently, using a UV spectrophotometer, the absorbance at 590 nm of each culture was determined. The formula was used to compute the viability percentage.
(§4) Percentage viability = ([…]) × 100
(§5) The percentage inhibition was calculated using the formula (100 - cell viability) and plotted in the graph to determine the MIC50 value for each compound (Figure 8) and (Figure 9).
(§6) GraphPad Prism 8.0.2 software (San Diego, CA, USA) was used for statistical analysis. The MIC50 value was established via a nonlinear regression analysis.

[2] = target: N-Myristoyltransferase (NMT); assay: in vitro biochemical NMT inhibition assay (fluorescence detection of CoA); conditions: 0.1 nM to 10,000 nM; excitation 380 nm, emission 470 nm
Procedure: The potency of the myristic acid derivatives was determined via an in vitro NMT assay. Coenzyme A (CoA) was detected as a byproduct of an enzymatic reaction. Fluorescence was measured at an excitation wavelength of 380 nm and an emission wavelength of 470 nm. In this assay, the intensity of fluorescence was […], giving a signal (Figure 7).
The NMT protein used in the study was from the supplier Ray Biotech. The assay was performed in 96-well black PP microplates with the myristic acid derivatives in concentrations ranging from 0.1 nM to 10,000 nM. The solutions were prepared in a buffer containing 20 mM of potassium phosphate (pH 7.9–8.0) and 0.5 mM of ethylenediaminetetraacetic acid (EDTA), 0.1% (v/v) Triton X-100, and a final concentration of 2.7% (v/v) dimethyl sulfoxide (DMSO). Fluorescence was measured at an excitation wavelength of 380 nm and an emission wavelength of 470 nm. These readings were obtained on an EnSight Multimode Microplate Reader, and we plotted the response vs. concentration (log nM), ranging from 0.1 nM to 10,000 nM, to obtain the IC50 values using Graph Pad Prism, according to the reported standard procedure.

[3] = tested on: Aspergillus niger (ATCC 16888); assay: antifungal micro-broth dilution assay, A. niger; assay type: cell-based; conditions: read-out: MIC50 A. niger
Procedure: as §1, §2, §3, §4, §5, §6

[4] = ATCC 10231, 26 °C, 100 to 6.25 μg/mL, absorbance 590 nm, read-out: MIC50 C. albicans
[5] = ATCC16888, ATCC 16888, 48 h, 26 °C, 100 to 6.25 μg/mL, absorbance 590 nm

Structure (SMILES)	IC50 [1, 4]	IC50 [2]	IC50 [3, 5]	IC50 ([1]; read-out: MIC50 C. albicans, ATCC 10231, 26 °C, 100 to 6.25 μg/mL, absorbance 590 nm)	IC50 ([3]; ATCC16888, 48 h)
CCCCCCCCCCCCCC(=O)N(CC)c1ccccc1 [Compound 3q, N-ethyl-N-phenyltetradecanamide]	28.4 µg/mL (≈ 85.7 µM)	> 1.5 µM	28.5 µg/mL (≈ 86.1 µM)	–	–
CCCCCCCCCCCCCC(=O)N(C)c1ccccc1 [Compound 3o, N-methyl-N-phenyltetradecanamide]	15 to 22 µg/mL (≈ 47.2 to 69.3 µM)	> 1.5 µM	94.2 µg/mL (≈ 297 µM)	–	–
CCCCCCCCCCCCCC(=O)Nc1ccc(C(F)(F)F)cc1 [Compound 3s, N-(4-(trifluoromethyl)phenyl)tetradecanamide]	38.8 µg/mL (≈ 104 µM)	> 1.5 µM	34.3 µg/mL (≈ 92.3 µM)	–	–
CCCCCCCCCCCCCC(=O)Nc1ccc(OCC)cc1 [Compound 3l, N-(4-ethoxyphenyl) tetradecanamide]	15 to 22 µg/mL (≈ 43.2 to 63.3 µM)	> 1.5 µM	75.9 µg/mL (≈ 218 µM)	–	–
CCCCCCCCCCCCCC(=O)Nc1ccccc1 [Compound 3p, N-phenyltetradecanamide]	15 to 22 µg/mL (≈ 49.4 to 72.5 µM)	> 1.5 µM	24.8 µg/mL (≈ 81.6 µM)	–	–
CCCCCCCCCCCCCC(=O)N1CCOCC1 [Compound 3n, 1-morpholinotetradeca-1-one]	27.6 µg/mL (≈ 92.8 µM)	> 1.5 µM	31.4 µg/mL (≈ 106 µM)	–	–
CCCCCCCCCCCCCC(=O)NC1CCCCC1 [Compound 3m, N-cyclohexyltetradecanamide]	–	0.863 µM	–	15 to 22 µg/mL (≈ 48.5 to 71.1 µM)	14.7 µg/mL (≈ 47.4 µM)
CCCCCCCCCCCCCC(=O)O [Myristic acid]	–	4.21 µM	–	–	–
CCCCCCCCCCCCCC(=O)Nc1ccccn1 [Compound 3u, N-(pyridine-2-yl) tetradecanamide]	10.6 µg/mL (≈ 34.9 µM)	0.835 µM	14.4 µg/mL (≈ 47.2 µM)	–	–
CCCCCCCCCCCCCC(=O)Nc1ccc(F)cc1 [Compound 3r, N-(4-fluorophenyl) tetradecanamide]	11.9 µg/mL (≈ 37 µM)	1.46 µM	15.4 µg/mL (≈ 48 µM)	–	–
OC(Cn1cncn1)(Cn1cncn1)c1ccc(F)cc1F [FLZ, Fluconazole, reference compound]	17.8 µg/mL (≈ 58 µM)	–	16.3 µg/mL (≈ 53.2 µM)	–	–
CCCCCCCCCCCCCC(=O)Nc1nc(C)cs1 [Compound 3v, N-(4-methylthiazol-2-yl) tetradecanamide]	32.4 µg/mL (≈ 99.8 µM)	> 1.5 µM	22.1 µg/mL (≈ 68.3 µM)	–	–
CCCCCCCCCCCCCC(=O)Nc1ccc(O)cc1 [Compound 3t, N-(4-hydroxyphenyl) tetradecanamide]	12.9 µg/mL (≈ 40.5 µM)	1 µM	17.4 µg/mL (≈ 54.5 µM)	–	–
CCCCCCCCCCCCCC(=O)Nc1cccc(C)c1 [Compound 3k, N-(m-tolyl) tetradecanamide]	10.8 µg/mL (≈ 33.9 µM)	1.29 µM	59.6 µg/mL (≈ 188 µM)	–	–
